23 compounds from patent US20260028365A1 (BIOGEN MA INC., priority 2022, published 2026) can be followed below.

One experiment addresses JH2 domain of human Tyk2 (Homo sapiens (Human), UniProt P29597). The experiment is described as follows: JH2 Biochemical Assay (TR-FRET probe displacement). Format: binding.
Another experiment concerns the target Tyk2 (Homo sapiens (Human), UniProt P29597). Nature of the experiment: pSTAT4 Cell Assay (MSD, NK92 cells). Format: cell-based.
In the next experiment the target is JAK1 (Homo sapiens (Human), UniProt P23458). Nature of the experiment: pSTAT3 Cell Assay (MSD, TF1 cells). Format: cell-based. Here is the method:
The inhibitory potency of compounds of the disclosure against the JAK1 kinase activity on STAT3 was evaluated using an MSD-platform plate-based assay format. TF1 cells natively expressing STAT3 and JAK1 were serum-starved to reduce background phosphorylation levels, then cells were treated with compounds of the disclosure for 1 hour with a 10-point four-fold dilution series starting at 10 μM. Cells were then stimulated with 30 ng/mL interleukin 6 (IL-6) for 15 minutes. Cells were lysed and pSTAT3 levels were quantitated using an MSD plate-based assay with anti-STAT3 antibodies. The data were normalized and the percent activity versus log concentration of compound was fitted with a 4-parameter logistic model to generate IC50 curves.

Setting [1] is: JH2 domain of human Tyk2, TR-FRET probe displacement.
[2] abbreviates: TR-FRET probe displacement, JH2 domain of human Tyk2.
The mark [3] stands for this setting: TR-FRET probe displacement, JH2 domain.

Structures are written as SMILES. pIC50: −log10 of the molar value. Counter-ions that a name gives are not always drawn. Like-named read-outs stand apart in the source and are kept apart here.

Chain of Tyk2 (P29597 whole entry): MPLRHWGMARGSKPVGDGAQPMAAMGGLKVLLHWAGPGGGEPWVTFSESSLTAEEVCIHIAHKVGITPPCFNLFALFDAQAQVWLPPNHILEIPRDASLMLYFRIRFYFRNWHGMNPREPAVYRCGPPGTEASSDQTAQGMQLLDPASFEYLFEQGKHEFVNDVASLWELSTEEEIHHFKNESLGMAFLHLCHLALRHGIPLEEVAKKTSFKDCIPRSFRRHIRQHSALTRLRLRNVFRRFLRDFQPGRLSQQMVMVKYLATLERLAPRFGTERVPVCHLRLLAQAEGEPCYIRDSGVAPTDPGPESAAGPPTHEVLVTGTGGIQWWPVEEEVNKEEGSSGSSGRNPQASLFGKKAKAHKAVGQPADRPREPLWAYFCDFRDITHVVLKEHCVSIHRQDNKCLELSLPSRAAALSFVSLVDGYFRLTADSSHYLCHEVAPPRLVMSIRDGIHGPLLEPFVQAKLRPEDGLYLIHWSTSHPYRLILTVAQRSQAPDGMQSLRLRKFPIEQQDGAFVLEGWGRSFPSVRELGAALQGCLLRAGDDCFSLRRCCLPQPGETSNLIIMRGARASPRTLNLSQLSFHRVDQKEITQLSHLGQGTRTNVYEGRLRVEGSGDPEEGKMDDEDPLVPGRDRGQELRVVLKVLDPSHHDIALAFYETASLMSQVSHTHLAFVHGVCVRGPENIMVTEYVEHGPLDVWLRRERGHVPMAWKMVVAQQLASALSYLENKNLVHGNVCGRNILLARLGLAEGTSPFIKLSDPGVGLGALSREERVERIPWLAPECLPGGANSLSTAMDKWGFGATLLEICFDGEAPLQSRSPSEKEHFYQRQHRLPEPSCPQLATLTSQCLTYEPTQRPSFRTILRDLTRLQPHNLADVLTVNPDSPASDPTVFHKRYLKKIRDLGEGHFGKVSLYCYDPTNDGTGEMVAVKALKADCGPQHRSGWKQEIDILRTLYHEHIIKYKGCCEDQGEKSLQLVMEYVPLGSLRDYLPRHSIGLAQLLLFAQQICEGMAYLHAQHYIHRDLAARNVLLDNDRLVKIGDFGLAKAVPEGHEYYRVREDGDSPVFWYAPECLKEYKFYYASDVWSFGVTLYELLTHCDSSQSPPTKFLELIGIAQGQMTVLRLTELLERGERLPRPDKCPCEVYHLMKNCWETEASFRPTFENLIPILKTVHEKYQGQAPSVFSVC
Chain of JH2 domain of human Tyk2 (P29597 575-876): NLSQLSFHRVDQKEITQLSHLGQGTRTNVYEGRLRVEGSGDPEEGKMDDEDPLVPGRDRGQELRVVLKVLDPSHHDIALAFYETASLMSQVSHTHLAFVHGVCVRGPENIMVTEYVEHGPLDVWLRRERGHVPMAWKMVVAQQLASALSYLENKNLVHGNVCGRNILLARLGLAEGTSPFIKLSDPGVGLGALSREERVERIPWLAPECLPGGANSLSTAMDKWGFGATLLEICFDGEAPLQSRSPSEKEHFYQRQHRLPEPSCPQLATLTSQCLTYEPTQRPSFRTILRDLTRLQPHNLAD
Chain of JAK1 (P23458 whole entry): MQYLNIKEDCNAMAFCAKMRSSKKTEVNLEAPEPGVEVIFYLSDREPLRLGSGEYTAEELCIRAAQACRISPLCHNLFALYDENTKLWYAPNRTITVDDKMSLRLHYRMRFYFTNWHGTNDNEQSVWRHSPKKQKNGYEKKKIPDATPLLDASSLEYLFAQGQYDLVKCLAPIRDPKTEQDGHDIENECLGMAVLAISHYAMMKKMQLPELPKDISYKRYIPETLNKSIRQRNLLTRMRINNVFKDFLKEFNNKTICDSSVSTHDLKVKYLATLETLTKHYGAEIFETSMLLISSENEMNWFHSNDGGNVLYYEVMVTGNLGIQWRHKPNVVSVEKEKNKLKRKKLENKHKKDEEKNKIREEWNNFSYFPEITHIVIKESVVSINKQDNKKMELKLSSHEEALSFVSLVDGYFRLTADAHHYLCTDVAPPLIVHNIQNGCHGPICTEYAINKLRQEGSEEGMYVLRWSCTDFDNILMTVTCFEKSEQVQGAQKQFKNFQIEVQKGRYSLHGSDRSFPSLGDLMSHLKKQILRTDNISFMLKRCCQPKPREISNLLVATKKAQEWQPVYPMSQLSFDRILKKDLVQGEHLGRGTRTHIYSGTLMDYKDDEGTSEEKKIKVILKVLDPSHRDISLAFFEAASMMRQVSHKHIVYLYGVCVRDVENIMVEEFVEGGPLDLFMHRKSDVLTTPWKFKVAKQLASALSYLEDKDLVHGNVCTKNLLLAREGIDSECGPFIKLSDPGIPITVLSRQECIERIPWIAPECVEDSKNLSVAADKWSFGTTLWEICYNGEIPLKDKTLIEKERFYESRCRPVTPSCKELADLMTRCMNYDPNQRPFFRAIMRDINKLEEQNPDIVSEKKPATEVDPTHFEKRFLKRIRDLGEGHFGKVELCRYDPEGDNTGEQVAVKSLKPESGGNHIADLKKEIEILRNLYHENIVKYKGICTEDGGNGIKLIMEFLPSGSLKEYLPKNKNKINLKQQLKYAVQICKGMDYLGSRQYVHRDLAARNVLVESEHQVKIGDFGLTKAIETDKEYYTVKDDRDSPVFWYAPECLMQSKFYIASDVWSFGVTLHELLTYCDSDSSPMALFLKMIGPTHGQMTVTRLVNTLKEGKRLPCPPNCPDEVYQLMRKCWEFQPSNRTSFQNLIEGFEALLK

As a reminder, the pIC50 is −log10 of the IC50, conventionally taken in molar units. Low readings indicate a large IC50, high ones a small IC50. As to `CC(=O)Nc1cc(Nc2cc(C)nc(C(C)(F)F)n2)c(-c2cccc([C@H]3CN(C)CCO3)n2)cn1` (single isomer, unassigned) [Example 642, (R)-N-(4′-((2-(1,1-difluoroethyl)-6-methylpyrimidin-4-yl)amino)-6-(4-methylmorpholin-2-yl)-[2,3′-bipyridin]-6′-yl)acetamide or (S)-N-(4′-((2-(1,1-difluoroethyl)-6-methylpyrimidin-4-yl)amino)-6-(4-methylmorpholin-2-yl)-[2,3′-bipyridin]-6′-yl)acetamide], the pIC50 at JH2 domain of human Tyk2 (setting [1]) is at least 8.00; on Tyk2 (MSD), at least 8.00; against JAK1 (IL-6 stimulated, MSD), at most 6.00.

In the case of `CC(=O)Nc1cc(Nc2cc(C)nc(C(C)(F)F)n2)c(C(F)(F)C2CC2)cn1` [Example 153, N-(5-(cyclopropyldifluoromethyl)-4-((2-(1,1-difluoroethyl)-6-methylpyrimidin-4-yl)amino)pyridin-2-yl)acetamide], the negative-log IC50 (pIC50) on JH2 domain of human Tyk2 (setting [2]) was at least 8.00; against Tyk2 (MSD), at least 8.00; at JAK1 (IL-6 stimulation, MSD) it was at most 6.00.

`COc1ccc(-c2cnc(NC(C)=O)cc2Nc2ccnc(C(C)(F)F)n2)nn1` [Example 214, N-(4-((2-(1,1-difluoroethyl)pyrimidin-4-yl)amino)-5-(6-methoxypyridazin-3-yl)pyridin-2-yl)acetamide trifluoroacetate]: the pIC50 at JH2 domain of human Tyk2 (setting [2]) is at least 8.00; against Tyk2 (MSD) it was at least 8.00; against JAK1 (IL-6 stimulation, MSD), at most 6.00.

Take `CCc1cc(Nc2cc(NC(C)=O)ncc2-c2ccc(CN(C)C)cn2)nc(C(C)(F)F)n1` [Example 266, N-(4′-((2-(1,1-difluoroethyl)-6-ethylpyrimidin-4-yl)amino)-5-((dimethylamino)methyl)-[2,3′-bipyridin]-6′-yl)acetamide]: the negative logarithm of the IC50 (pIC50) at JH2 domain of human Tyk2 (setting [2]) is at least 8.00; against Tyk2 (MSD) it was at least 8.00; against JAK1 (IL-6 stimulation, MSD) it was 6.00 to 7.00.

For the compound `COCc1ccc(-c2cnc(NC(C)=O)cc2Nc2cc(C)nc(C34CC(CO3)C4)n2)nc1` [Example 280, N-(4′-((2-(2-oxabicyclo[2.1.1]hexan-1-yl)-6-methylpyrimidin-4-yl)amino)-5-(methoxymethyl)-[2,3′-bipyridin]-6′-yl)acetamide], the pIC50 was at least 8.00 on JH2 domain of human Tyk2 (setting [2]); at least 8.00 against Tyk2 (MSD); at most 6.00 at JAK1 (IL-6 stimulation, MSD).

Regarding `COCn1ncc(-c2cnc(NC(C)=O)cc2Nc2cc(C)nc(C(C)(F)F)n2)n1` [Example 608, N-(4-((2-(1,1-difluoroethyl)-6-methylpyrimidin-4-yl)amino)-5-(2-(methoxymethyl)-2H-1,2,3-triazol-4-yl)pyridin-2-yl)acetamide], the pIC50 at JH2 domain of human Tyk2 (setting [1]) is at least 8.00; on Tyk2 (MSD), at least 8.00; at JAK1 (IL-6 stimulated, MSD), at most 6.00.

With `CC(=O)Nc1cc(Nc2cc(C)nc(C(C)(F)F)n2)c(-c2ccc(N3CCN(C)CC3)cn2)cn1` [Example 651, N-(4′-((2-(1,1-difluoroethyl)-6-methylpyrimidin-4-yl)amino)-5-(4-methylpiperazin-1-yl)-[2,3′-bipyridin]-6′-yl)acetamide], the pIC50 at Tyk2 (MSD) was at least 8.00; against JAK1 (IL-6 stimulated, MSD) it was at most 6.00.

Take `CC(=O)Nc1cc(Nc2cc(C)nc(C(C)(F)F)n2)c(-c2nncs2)cn1` [Example 744, N-(4-((2-(1,1-difluoroethyl)-6-methylpyrimidin-4-yl)amino)-5-(1,3,4-thiadiazol-2-yl)pyridin-2-yl)acetamide]: the negative logarithm of the IC50 (pIC50) is at least 8.00 on JH2 domain of human Tyk2 (setting [1]); at least 8.00 against Tyk2 (MSD); at most 6.00 at JAK1 (IL-6 stimulated, MSD).

Consider `CC(=O)Nc1cc(Nc2cc(C)nc(C34COC(C3)C4)n2)c(-c2cc(C)ncn2)cn1` [Example 746, N-(4-((2-(2-oxabicyclo[2.1.1]hexan-4-yl)-6-methylpyrimidin-4-yl)amino)-5-(6-methylpyrimidin-4-yl)pyridin-2-yl)acetamide], for which the figures for the pIC50 at JH2 domain of human Tyk2 (setting [3]), against Tyk2 and against JAK1 (IL-6 stimulated) were at least 8.00, 6.00 to 7.00 and at most 6.00, respectively.

For `CC(=O)Nc1cc(Nc2cc(C)nc(C34COC(C3)C4)n2)c(-c2ccncn2)cn1` [Example 748, N-(4-((2-(2-oxabicyclo[2.1.1]hexan-4-yl)-6-methylpyrimidin-4-yl)amino)-5-(pyrimidin-4-yl)pyridin-2-yl)acetamide], the pIC50 on JH2 domain of human Tyk2 (setting [3]) is at least 8.00; against Tyk2, at least 8.00; on JAK1 (IL-6 stimulated), at most 6.00.

`CC(=O)Nc1cc(Nc2cc(C)nc(C34COC(C3)C4)n2)c(-c2ccc(C#N)cn2)cn1` [Example 751, N-(4′-((2-(2-oxabicyclo[2.1.1]hexan-4-yl)-6-methylpyrimidin-4-yl)amino)-5-cyanO[2,3′-bipyridin]-6′-yl)acetamide]: the pIC50 at JH2 domain of human Tyk2 (setting [3]) was at least 8.00; at Tyk2 it was 7.00 to 8.00; against JAK1 (IL-6 stimulated), at most 6.00.

Regarding `COCCc1nnc(-c2cnc(NC(C)=O)cc2Nc2cc(C)nc(C(C)(F)F)n2)s1` [Example 754, N-(4-((2-(1,1-difluoroethyl)-6-methylpyrimidin-4-yl)amino)-5-(5-(2-methoxyethyl)-1,3,4-thiadiazol-2-yl)pyridin-2-yl)acetamide], the pIC50 is at least 8.00 at JH2 domain of human Tyk2 (setting [3]), at least 8.00 on Tyk2 and at most 6.00 against JAK1 (IL-6 stimulated).

In the case of `COCCc1cnc(-c2cnc(NC(C)=O)cc2Nc2cc(C)nc(C(C)(F)F)n2)s1` [Example 756, N-(4-((2-(1,1-difluoroethyl)-6-methylpyrimidin-4-yl)amino)-5-(5-(2-methoxyethyl)thiazol-2-yl)pyridin-2-yl)acetamide], the results for the negative logarithm of the IC50 (pIC50) at JH2 domain of human Tyk2 (setting [3]), against Tyk2 and on JAK1 (IL-6 stimulated) were at least 8.00, 6.00 to 7.00 and at most 6.00, respectively.

As to `CC(=O)Nc1cc(Nc2cc(C)nc(C(C)(F)F)n2)c(-c2cn3c(n2)COCC3)cn1` [Example 768, N-(4-((2-(1,1-difluoroethyl)-6-methylpyrimidin-4-yl)amino)-5-(5,6-dihydrO8H-imidazo[2,1-c][1,4]oxazin-2-yl)pyridin-2-yl)acetamide], the pIC50 is at least 8.00 at JH2 domain of human Tyk2 (setting [3]), at least 8.00 on Tyk2 and at most 6.00 against JAK1 (IL-6 stimulated).

With `CC(=O)Nc1cc(Nc2ccnc(C(C)(F)F)n2)c(-c2ccnc(C(F)F)n2)cn1` [Example 775, N-(4-((2-(1,1-difluoroethyl)pyrimidin-4-yl)amino)-5-(2-(difluoromethyl)pyrimidin-4-yl)pyridin-2-yl)acetamide], the figures for the negative logarithm of the IC50 (pIC50) at JH2 domain of human Tyk2 (setting [3]), against Tyk2 and at JAK1 (IL-6 stimulated) were at least 8.00, at least 8.00 and at most 6.00, respectively.

Turning to `CC(=O)Nc1cc(Nc2ccnc(C(C)(F)F)n2)c(-c2ccc(N3CCC4(COC4)C3)nn2)cn1` [Example 890, N-(5-(6-(2-oxa-6-azaspiro[3.4]octan-6-yl)pyridazin-3-yl)-4-((2-(1,1-difluoroethyl)pyrimidin-4-yl)amino)pyridin-2-yl)acetamide], the negative logarithm of the IC50 (pIC50) at JH2 domain of human Tyk2 (setting [3]) and at Tyk2 was at least 8.00 throughout.

With `CCc1cc(Nc2cc(NC(C)=O)ncc2-c2cnc(CN3CCCC3)cn2)nc(C(C)(F)F)n1` [Example 893, N-(4-((2-(1,1-difluoroethyl)-6-ethylpyrimidin-4-yl)amino)-5-(5-(pyrrolidin-1-ylmethyl)pyrazin-2-yl)pyridin-2-yl)acetamide], the pIC50 at JH2 domain of human Tyk2 (setting [3]) and at Tyk2 was at least 8.00 in each case.

In the case of `CCc1cc(Nc2cc(NC(C)=O)ncc2-c2cnc(CN3C[C@@H]4C[C@H]3CO4)cn2)nc(C(C)(F)F)n1` [Example 894, N-(5-(5-(((1S,4S)-2-oxa-5-azabicyclo[2.2.1]heptan-5-yl)methyl)pyrazin-2-yl)-4-((2-(1,1-difluoroethyl)-6-ethylpyrimidin-4-yl)amino)pyridin-2-yl)acetamide], the negative logarithm of the IC50 (pIC50) at JH2 domain of human Tyk2 (setting [3]) and on Tyk2 was at least 8.00 in each case.

`CCc1cc(Nc2cc(NC(C)=O)ncc2-c2cnc(CN(C)C)cn2)nc(C(C)(F)F)n1` [Example 895, N-(4-((2-(1,1-difluoroethyl)-6-ethylpyrimidin-4-yl)amino)-5-(5-((dimethylamino)methyl)pyrazin-2-yl)pyridin-2-yl)acetamide]: the pIC50 on JH2 domain of human Tyk2 (setting [3]) and at Tyk2 was at least 8.00 throughout.

As for `COC(C)(C)c1cnc(-c2cnc(NC(C)=O)cc2Nc2ccnc(C(C)(F)F)n2)cn1` [Example 896, N-(4-((2-(1,1-difluoroethyl)pyrimidin-4-yl)amino)-5-(5-(2-methoxypropan-2-yl)pyrazin-2-yl)pyridin-2-yl)acetamide], the pIC50 at JH2 domain of human Tyk2 (setting [3]) is at least 8.00; against Tyk2 it was 7.00 to 8.00.

For the compound `CCc1cc(Nc2cc(NC(C)=O)ncc2-c2cnc(C3COCCO3)cn2)nc(C(C)(F)F)n1` (stereo not drawn) [Example 898, N-(5-(5-(1,4-dioxan-2-yl)pyrazin-2-yl)-4-((2-(1,1-difluoroethyl)-6-ethylpyrimidin-4-yl)amino)pyridin-2-yl)acetamide], the pIC50 at JH2 domain of human Tyk2 (setting [3]) and against Tyk2 was at least 8.00 in each case.

Regarding `CCc1cc(Nc2cc(NC(C)=O)ncc2-c2cnc(CN3C[C@H]4C[C@@H](C3)O4)cn2)nc(C(C)(F)F)n1` [Example 900, N-(5-(5-(((1R,5S)-6-oxa-3-azabicyclo[3.1.1]heptan-3-yl)methyl)pyrazin-2-yl)-4-((2-(1,1-difluoroethyl)-6-ethylpyrimidin-4-yl)amino)pyridin-2-yl)acetamide], the pIC50 on JH2 domain of human Tyk2 (setting [3]) and against Tyk2 was at least 8.00 each time.

Take `CCc1cc(Nc2cc(NC(=O)NC)ncc2-c2cnccn2)nc(C(C)(F)F)n1` [Example 919, 1-(4-((2-(1,1-difluoroethyl)-6-ethylpyrimidin-4-yl)amino)-5-(pyrazin-2-yl)pyridin-2-yl)-3-methylurea]: the negative-log IC50 (pIC50) was at least 8.00 at JH2 domain of human Tyk2 (setting [3]) and 7.00 to 8.00 on Tyk2.
